Source: PubChem BioAssay AID1963983 (Molecular Pharmacology Branch, DTP, NCI, 2024)
Values joined by “and” are separate entries in the source; they are usually repeats but may differ in a detail not shown here. Identical values can stand only once.

Test system: 186277-243-T-J2-PDC multi-cell spheroid viability
Assay: Anticancer human tumor 186277-243-T-J2-PDC patient-derived colon adenocarcinoma cell line growth inhibition [PI3K]
Settings: for viability, T/C: stronger effect = lower value
In short: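 Three cell types, namely tumor cells, endothelial cells and mesenchymal stem cells, formed each spheroid. Combinations with four PI3K inhibitors were screened at clinically achievable concentrations decreasing by half-log, and spheroid viability was recorded.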

[1] = curve of first compound, second compound 0.0316 µM
[2] = curve of first compound, second compound 0.1 µM
[3] = curve of first compound, second compound 0.316 µM
[4] = curve of first compound, second compound 1 µM
[5] = curve of first compound, second compound 3.16 µM
[6] = curve of first compound, second compound 10 µM
[7] = second compound 0.0316 µM, first compound 0.0316 µM
[8] = second compound 0.0316 µM, first compound 0.1 µM
[9] = second compound 0.0316 µM, first compound 0.316 µM
[10] = second compound 0.0316 µM, first compound 1 µM
[11] = second compound 0.0316 µM, first compound 3.16 µM
[12] = second compound 0.0316 µM, first compound 10 µM
[13] = second compound 0.1 µM, first compound 0.0316 µM
[14] = second compound 0.1 µM, first compound 0.1 µM
[15] = second compound 0.1 µM, first compound 0.316 µM
[16] = second compound 0.1 µM, first compound 1 µM
[17] = second compound 0.1 µM, first compound 3.16 µM
[18] = second compound 0.1 µM, first compound 10 µM
[19] = second compound 0.316 µM, first compound 0.0316 µM
[20] = second compound 0.316 µM, first compound 0.1 µM
[21] = second compound 0.316 µM, first compound 0.316 µM
[22] = second compound 0.316 µM, first compound 1 µM
[23] = second compound 0.316 µM, first compound 3.16 µM
[24] = second compound 0.316 µM, first compound 10 µM
[25] = second compound 1 µM, first compound 0.0316 µM
[26] = second compound 1 µM, first compound 0.1 µM
[27] = second compound 1 µM, first compound 0.316 µM
[28] = second compound 1 µM, first compound 1 µM
[29] = second compound 1 µM, first compound 3.16 µM
[30] = second compound 1 µM, first compound 10 µM
[31] = second compound 3.16 µM, first compound 0.0316 µM
[32] = second compound 3.16 µM, first compound 0.1 µM
[33] = second compound 3.16 µM, first compound 0.316 µM
[34] = second compound 3.16 µM, first compound 1 µM
[35] = second compound 3.16 µM, first compound 3.16 µM
[36] = second compound 3.16 µM, first compound 10 µM
[37] = second compound 10 µM, first compound 0.0316 µM
[38] = second compound 10 µM, first compound 0.1 µM
[39] = second compound 10 µM, first compound 0.316 µM
[40] = second compound 10 µM, first compound 1 µM
[41] = second compound 10 µM, first compound 3.16 µM
[42] = second compound 10 µM, first compound 10 µM
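Note: spheroids exposed to compounds for seven days before viability reading.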
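Throughout, for viability, T/C: 100% = DMSO vehicle control viability.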

Cn1cnc2c(F)c(Nc3ccc(Br)cc3Cl)c(C(=O)NOCCO)cc21 + CC(Nc1ncnc2nc[nH]c12)c1cc2cccc(Cl)c2c(=O)n1-c1ccccc1
IC50 [1]: 175 nM
IC50 [2]: 162 nM
IC50 [3]: 148 nM
IC50 [4]: 114 nM
IC50 [5]: 62.7 nM
IC50 [6]: 23.1 nM
viability, T/C (second compound 0.0316 µM, first compound 0.00949 µM): 93%
viability, T/C (second compound 0.0316 µM, first compound 0.03 µM): 91.3%
viability, T/C (second compound 0.0316 µM, first compound 0.0949 µM): 58.8%
viability, T/C (second compound 0.0316 µM, first compound 0.3 µM): 38.9%
viability, T/C (second compound 0.0316 µM, first compound 0.949 µM): 23.3%
viability, T/C (second compound 0.0316 µM, first compound 3 µM): 10.3%
viability, T/C (second compound 0.1 µM, first compound 0.00949 µM): 115%
viability, T/C (second compound 0.1 µM, first compound 0.03 µM): 92.3%
viability, T/C (second compound 0.1 µM, first compound 0.0949 µM): 56.4%
viability, T/C (second compound 0.1 µM, first compound 0.3 µM): 40.1%
viability, T/C (second compound 0.1 µM, first compound 0.949 µM): 22.2%
viability, T/C (second compound 0.1 µM, first compound 3 µM): 12%
viability, T/C (second compound 0.316 µM, first compound 0.00949 µM): 91.1%
viability, T/C (second compound 0.316 µM, first compound 0.03 µM): 82.4%
viability, T/C (second compound 0.316 µM, first compound 0.0949 µM): 57.4%
viability, T/C (second compound 0.316 µM, first compound 0.3 µM): 37.5%
viability, T/C (second compound 0.316 µM, first compound 0.949 µM): 15.3%
viability, T/C (second compound 0.316 µM, first compound 3 µM): 12.5%
viability, T/C (second compound 1 µM, first compound 0.00949 µM): 112%
viability, T/C (second compound 1 µM, first compound 0.03 µM): 82.5%
viability, T/C (second compound 1 µM, first compound 0.0949 µM): 49.7%
viability, T/C (second compound 1 µM, first compound 0.3 µM): 35.1%
viability, T/C (second compound 1 µM, first compound 0.949 µM): 19.5%
viability, T/C (second compound 1 µM, first compound 3 µM): 9.14%
viability, T/C (second compound 3.16 µM, first compound 0.00949 µM): 104%
viability, T/C (second compound 3.16 µM, first compound 0.03 µM): 64.1%
viability, T/C (second compound 3.16 µM, first compound 0.0949 µM): 39.9%
viability, T/C (second compound 3.16 µM, first compound 0.3 µM): 28.5%
viability, T/C (second compound 3.16 µM, first compound 0.949 µM): 18.3%
viability, T/C (second compound 3.16 µM, first compound 3 µM): 7.22%
viability, T/C (second compound 10 µM, first compound 0.00949 µM): 75.7%
viability, T/C (second compound 10 µM, first compound 0.03 µM): 41.1%
viability, T/C (second compound 10 µM, first compound 0.0949 µM): 25.4%
viability, T/C (second compound 10 µM, first compound 0.3 µM): 14.1%
viability, T/C (second compound 10 µM, first compound 0.949 µM): 8.69%
viability, T/C (second compound 10 µM, first compound 3 µM): 5.17%

CCCS(=O)(=O)Nc1ccc(F)c(C(=O)c2c[nH]c3ncc(-c4ccc(Cl)cc4)cc23)c1F + CC(Nc1ncnc2nc[nH]c12)c1cc2cccc(Cl)c2c(=O)n1-c1ccccc1
IC50 [1]: 5690 nM
IC50 [2]: 5060 nM
IC50 [3]: 4970 nM
IC50 [4]: 5210 nM
IC50 [5]: 5300 nM
IC50 [6]: 5480 nM
viability, T/C [7]: 85.8%
viability, T/C [8]: 96.6%
viability, T/C [9]: 105%
viability, T/C [10]: 85.6%
viability, T/C [11]: 96.5%
viability, T/C [12]: 7.89%
viability, T/C [13]: 97.5%
viability, T/C [14]: 103%
viability, T/C [15]: 93.2%
viability, T/C [16]: 77.8%
viability, T/C [17]: 83.7%
viability, T/C [18]: 7.36%
viability, T/C [19]: 97.3%
viability, T/C [20]: 109%
viability, T/C [21]: 87%
viability, T/C [22]: 94.5%
viability, T/C [23]: 76.5%
viability, T/C [24]: 10.1%
viability, T/C [25]: 86.7%
viability, T/C [26]: 98.1%
viability, T/C [27]: 95.5%
viability, T/C [28]: 94%
viability, T/C [29]: 82.3%
viability, T/C [30]: 7.72%
viability, T/C [31]: 113%
viability, T/C [32]: 94.6%
viability, T/C [33]: 90.6%
viability, T/C [34]: 91%
viability, T/C [35]: 84.8%
viability, T/C [36]: 9.36%
viability, T/C [37]: 108%
viability, T/C [38]: 104%
viability, T/C [39]: 106%
viability, T/C [40]: 105%
viability, T/C [41]: 87.6%
viability, T/C [42]: 8.89%

C#Cc1c(F)ccc2cc(O)cc(-c3ncc4c(N5CC6CCC(C5)N6)nc(OCC56CCCN5CC(F)C6)nc4c3F)c12 (stereo not drawn) + CC(Nc1ncnc2nc[nH]c12)c1cc2cccc(Cl)c2c(=O)n1-c1ccccc1
IC50 [1]: 94.1 nM
IC50 [2]: 93.1 nM
IC50 [3]: 87.5 nM
IC50 [4]: 78.9 nM
IC50 [5]: 52.9 nM
IC50 [6]: < 31.6 nM
viability, T/C [7]: 98.9%
viability, T/C [8]: 47.3%
viability, T/C [9]: 19.4%
viability, T/C [10]: 11.3%
viability, T/C [11]: 10.3%
viability, T/C [12]: 9.72%
viability, T/C [13]: 106%
viability, T/C [14]: 46.3%
viability, T/C [15]: 21.2%
viability, T/C [16]: 13.3%
viability, T/C [17]: 16.1%
viability, T/C [18]: 8%
viability, T/C [19]: 102%
viability, T/C [20]: 41%
viability, T/C [21]: 25.5%
viability, T/C [22]: 20.3%
viability, T/C [23]: 14.3%
viability, T/C [24]: 11.2%
viability, T/C [25]: 93.6%
viability, T/C [26]: 38%
viability, T/C [27]: 18%
viability, T/C [28]: 19.6%
viability, T/C [29]: 11%
viability, T/C [30]: 6.62%
viability, T/C [31]: 68.6%
viability, T/C [32]: 26.3%
viability, T/C [33]: 14.9%
viability, T/C [34]: 12.1%
viability, T/C [35]: 7.19%
viability, T/C [36]: 4.96%
viability, T/C [37]: 31.9%
viability, T/C [38]: 12.6%
viability, T/C [39]: 8.73%
viability, T/C [40]: 6.7%
viability, T/C [41]: 4.26%
viability, T/C [42]: 4.02%

CCN1CCN(Cc2ccc(Nc3ncc(F)c(-c4cc(F)c5nc(C)n(C(C)C)c5c4)n3)nc2)CC1
viability, T/C (compound 0.00316 µM): 102% [middle of 4 runs]
viability, T/C (compound 0.01 µM): 101% [middle of 4 runs]
viability, T/C (compound 0.0316 µM): 106% [middle of 4 runs]
viability, T/C (compound 0.1 µM): 130% [middle of 4 runs]
viability, T/C (compound 0.316 µM): 146% and 156% and 145% (2×)
viability, T/C (compound 1 µM): 146% [middle of 4 runs]
IC50 (curve of compound): > 1000 nM
